Where two headings read alike, the source gives them in different places.
How the values were obtained:
[1] = cited from earlier work
[2] = literature values, cited from earlier work; for log Ka1 / log Ka2 / log Ka3 / log Ka4: I = 0.1M KCl (footnotes b, c, d)
[3] = Thermodynamic stability constants of Ca^2+ complexes by pH-potentiometry; format: binding; details: I = 0.1M KCl; for pCa (−log [M^2+]free): [M^2+] = 10^−6M, [L] = 10^−5M, pH 7.4; for pCa (−log [M^2+]free) / log KCaL / log KCaHL: 25° C.; for log K′Ca (conditional stability constant): pH 7.4, 25° C., calculated from protonation and stability constants; for log KCaL / log KCaHL: pH-potentiometry
Description: Potentiometric measurements were carried out using a titrator equipped with a combination electrode and an exchange unit with an automatic burette (10 mL). The titration vessel was fitted with a removable glass cell (˜70 mL) and was thermostated at 25° C. using a circulating water bath. CO2 was excluded from the vessel prior to and during the titrations using a small positive pressure of Ar that was passed through a solution of 30 wt % KOH. Carbonate-free KOH (˜0.1 M) was prepared by dissolving KOH pellets (semiconductor grade, 99.99% trace metals basis) in freshly boiled water (≥18 MΩ-cm) and was standardized by potentiometric titration against potassium hydrogen phthalate. Hydrochloric acid (0.1 M) was standardized against freshly prepared KOH. Titration solutions were maintained at a constant ionic strength of 0.1 M using KCl (≥99.5%) and were equilibrated for 15 minutes prior to the addition of titrant. Before every titration, the electrode was calibrated in terms of hydrogen ion concentration by titrating a solution of standardized HCl (5 mM) containing supporting electrolyte (95 mM) with standardized KOH (2 mL). Data within the pH ranges of 2.5-3.2 and 10.8-11.2 were analyzed using software to obtain the standard electrode potential (E0) and slope factor. Owing to the sharp rise in pH at the titration endpoint (pH 3.2-10.8), data obtained in this region are subject to significant error and were therefore excluded from the calibration analysis. A pKw value of 13.78 was taken from the literature (Baes, C. F.; Mesmer, R. E. The Hydrolysis of Cations; Wiley: New York, 1976).
ICP standards of calcium, strontium, and barium in dilute HNO3 were employed in the titrations. The exact amount of HNO3 was determined by potentiometric titration of each metal solution (1 mL), diluted to a known volume with H2O, with standardized KOH to pH ˜7; under these conditions, no precipitation of metal hydroxide species was observed. The data were analyzed using a Gran plot (Gran, G. Analyst 1952, 77, 661-671). Stability constants were measured for the alkaline earth complexes of macropa^2− and macropaquin^2− by adding standardized KOH to a solution (20 mL) containing ligand (0.02 mmol), metal (0.02 mmol), 1 M KCl (1.9 mmol), and a portion of 0.1 M HCl sufficient to bring the total acid content (HCl+HNO3) to 0.1 mmol. The titration method employed either a 0.1 mV/min or 0.2 mV/min drift limit with a maximum wait time of 300 seconds between addition of base and measurement. […] Data points (˜30-90) obtained over the pH ranges of 2.5-10.5 (Ba-macropa), 2.8-10.5 (Sr-macropa), 4.0-10.5 (Ca-macropa), 2.7-11.3 (Ba-macropaquin), and 4.0-11.3 (Sr- and Ca-macropaquin) were included in the refinements. These pH ranges reflect the portion of the titration curves in which metal binding is occurring. Using the protonation constants measured for each ligand, the stability constants (Equations 2-4, below) were calculated from the average of at least 3 independent titrations using appropriate software. Proton concentration was admitted as a refineable parameter. Ligand (L) concentration was taken as the averaged value obtained from the refinements of ligand-only titrations. The errors given for the stability constants correspond to one standard deviation.
The alkaline earth stability constants for macroquin-SO3^4− were determined using a system in which each ligand titration was paired with a ligand-metal titration. These pairwise titrations permitted the ligand concentration for the metal-ligand titrations to be known with reasonable certainty from the refinement of the ligand-only titrations. Immediately following a titration of the free ligand with HCl, metal ion (0.013 mmol) was added and the solution was equilibrated under Ar for 15 minutes before the addition of standardized KOH. The same titration method was employed as described above for macropa^2− and macropaquin^2−. […]

[4] = cited from earlier work; remark: listed apart in the source
[5] = Dissolution of barite ore in columns (ligand efficiency, GFAAS); details: ~48 mM ligand, soak 1 hour
[6] = Aqueous solubility of ligand (stock solution preparation); format: physicochemical; details: stock solution could not be prepared
Description: Stock solutions of macropa and macropaquin were prepared in H2O. […] The exact ligand concentrations were determined from the potentiometric titration curves with KOH. Protonation equilibria of macropa^2− and macropaquin^2− were determined by adding standardized KOH to a solution (20 mL) containing ligand (˜0.02 mmol), 0.1 M HCl (0.1 mmol), and 1 M KCl (1.9 mmol). The titration method employed a 0.1 mV/min drift limit with a maximum wait time of 90 sec between addition of base and measurement. At least 70 data points were collected over the pH range of 2.5-10.5 (macropa) or 2.5-11.3 (macropaquin). The protonation constants, defined in Eq. 1, were calculated from the average of at least 4 independent titrations using the appropriate software.

[7] = literature values (footnotes b, c)
[8] = bracketed literature value, I = 0.1M KNO3 (footnote e)

SMILES | log KCaHL [1, 7] | log Ka1 [2] | log Ka2 [2] | log Ka3 [2] | log Ka4 [2] | pCa (−log [M^2+]free) [3] | log K′Ca (conditional stability constant) [3] | log KSrHL [4, 7] | log KCaL [1, 8] | log Ka5 ([2]; I = 0.1M KCl (footnotes c, d)) | log KCaL [3] | log KSrHL [4, 8] | log KSrL [4, 8] | ligand efficiency (percent of ligand saturated with Ba^2+) ([5]; pH 8, barite 3 g) | ligand efficiency (percent of ligand saturated with Ba^2+) ([5]; pH 11, barite 3 g) | log KCaHL [3] | aqueous solubility [6]
O=C(O)CN1CCN(CC(=O)O)CCN(CC(=O)O)CCN(CC(=O)O)CC1 [DOTA, reference compound] | 3.60 | 11.14 | 9.69 | 4.85 | 3.95 | 11.29 | 10.34 | 4.52 | – | – | – | – | – | – | – | – | –
O=C(O)c1cccc(CN2CCOCCOCCN(Cc3cccc(C(=O)O)n3)CCOCCOCC2)n1 [macropa, 6,6-((1,4,10,13-tetraoxa-7,16-diazacyclooctadecane-7,16-diyl)bis(methylene))dipicolinic acid] | – | (7.41)^d | (6.85) | (3.32) | (2.36) | 6.54 | 5.42 | – | [5.25]^e | (1.69) | 5.79(1) | [4.16] | [9.57] | 40% | 40% | – | –
O=C(O)c1cccc(CN2CCOCCOCCN(Cc3ccc4cccc(O)c4n3)CCOCCOCC2)n1 [macropaquin, 6-((16-((8-hydroxyquinolin-2-yl)methyl)-1,4,10,13-tetraoxa-7,16-diazacyclooctadecan-7-yl)methyl)picolinic acid] | – | – | – | – | – | 6.04 | 3.94 | – | – | – | 5.90(4) | – | – | – | – | 8.59(2) | –
O=S(=O)(O)c1ccc(O)c2nc(CN3CCOCCOCCN(Cc4ccc5c(S(=O)(=O)O)ccc(O)c5n4)CCOCCOCC3)ccc12 [macroquin-SO3, 2,2′-((1,4,10,13-tetraoxa-7,16-diazacyclooctadecane-7,16-diyl)bis(methylene))bis(8-hydroxyquinoline-5-sulfonic acid)] | – | – | – | – | – | 6.01 | 3.19 | – | – | – | 6.04(8) | – | – | – | – | 8.60(4) | poor aqueous solubility
